Source: patent US20220153732A1, “PROTEIN SECRETION INHIBITORS” (KEZAR LIFE SCIENCES, priority 2019, published 2022)

Experiments:
Format in all cases: cell-based
[1] = test system: TNFα-FL/Gaussia Luciferase; experiment: Dox Induced TNFα-FL-Gluc Assay; settings: 24 hr, doxycycline-induced, 293FRT/TO cells; read-out: 24 hr Dox Inducible TNFaFLGluc 293FRT/TO: Mean IC50
Outline: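 A stable T-REx cell line carrying doxycycline-inducible TNFα-FL/Gaussia luciferase was plated the day before assay. Compound dilutions in DMSO/media containing doxycycline were then added and incubated at 37° C, 5% CO2.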

[2] = test system: PD1-ss+10aa/Gaussia Luciferase; experiment: Dox-Induced PD1-ss-Gluc Assay; settings: 24 hr, doxycycline-induced, 293FRT/TO cells; read-out: 24 hr Dox Inducible PD1ssGluc 293FRT/TO: Mean IC50
Outline: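 Stable cell line carrying PD1-ss+10aa/Gaussia luciferase cDNA under T-REx (doxycycline-inducible) control, plated the day before assay. Compound dilutions in DMSO/media containing doxycycline added and incubated at 37° C, 5% CO2. Undefined stereocentres: data refer to stereoisomer mixtures.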

[3] = test system: IL-2-FL/Gaussia Luciferase; experiment: Dox Induced IL2-FL-Gluc Assay; settings: 24 hr, doxycycline-induced, 293FRT/TO cells; read-out: 24 hr Dox Inducible IL2FLGIuc 293FRT/TO: Mean IC50
Outline: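 Stable T-REx cell line expressing doxycycline-inducible IL-2-FL/Gaussia luciferase cDNA, plated the day before assay. Compound dilutions in DMSO/media containing doxycycline added and incubated at 37° C., 5% CO2. Unspecified stereochemistry means data refer to a stereoisomer mixture.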

[4] = test system: human multiple myeloma cell line U266B1; experiment: U266 Cell Viability Assay; settings: U-266, 48 hr, U266B1 cells, Celltiter-Glo, read-out: 48 hr U266 Viability Celltiter-Glo: Mean EC50
Outline: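 U266B1 myeloma cells treated with compound dilutions in DMSO/media for 48 h at 37 °C, 5% CO2. Viability read by CellTiter-Glo luminescence. Stereochemically undefined structures were tested as stereoisomer mixtures.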

[5] = test system: HER3-ss+4aa/Gaussia Luciferase; experiment: Dox-Induced Her3-ss-Gluc Assay; settings: 24 hr, doxycycline-induced, 293FRT/TO cells; read-out: 24 hr Dox Inducible Her3(ss + 4)Gluc 293FRT/TO: Mean IC50
Outline: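 Stable T-REx cell line carrying a doxycycline-regulated HER3-ss+4aa/Gaussia luciferase insert, plated the day before assay. Compound dilutions in DMSO/media with doxycycline added, then incubated at 37° C., 5% CO2. Stereoisomer mixtures tested where stereochemistry is not drawn.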

[6] = test system: human multiple myeloma cell line NCI-H929; experiment: H929 Cell Viability Assay; settings: 48 hr, NCI-H929 cells, Celltiter-Glo, read-out: 48 hr H929 Viability Celltiter-Glo: Mean EC50
Experimental: Plates were incubated at 37° C., 5% CO2 for 48 hours. After 48 hours, Celltiter-Glo® (Promega) was added to each well and luciferase signal was quantified using Tecan Infinite M1000 Pro for cell viability determination.
For chemical structures that include one or more stereoisomers, but are illustrated without indicating stereochemistry, the assay data refers to a mixture of stereoisomers.

CC(C)c1csc(NC(=O)[C@@H]2CCCN2C(=O)c2ccncc2)n1 [Compound B20, (S)-1-isonicotinoyl-N-(4-isopropylthiazol-2-yl)pyrrolidine-2-carboxamide]
> 25 µM: IC50 [1] | IC50 [2] | IC50 [3] | EC50 [4] | IC50 [5] | EC50 [6]

CC(C)c1csc(NC(=O)[C@H]2CCCN2C(=O)c2ccncc2)n1 [Compound B21, (R)-1-isonicotinoyl-N-(4-isopropylthiazol-2-yl)pyrrolidine-2-carboxamide]
> 25 µM: IC50 [1] | IC50 [2] | IC50 [3] | EC50 [4] | IC50 [5] | EC50 [6]

CC(=O)NCCc1nc(NC(=O)c2cccn2Cc2ccncc2)sc1C [Compound B22, N-(4-(2-acetamidoethyl)-5-methylthiazol-2-yl)-1-(pyridin-4-ylmethyl)-1H-pyrrole-2-carboxamide]
> 25 µM: IC50 [1] | IC50 [2] | IC50 [3] | EC50 [4] | IC50 [5] | EC50 [6]

CC(C)(C)[C@H]1C[C@@H]1NC(=O)c1cccn1Cc1ccncc1 [Compound B23, N-((1S,2R)-2-(tert-butyl)cyclopropyl)-1-(pyridin-4-ylmethyl)-1H-pyrrole-2-carboxamide]
> 25 µM: IC50 [1] | IC50 [2] | IC50 [3] | EC50 [4] | IC50 [5] | EC50 [6]

CCc1nc(NC(=O)[C@H]2CCCN2Cc2ccncc2)sc1C [Compound B24]
> 25 µM: IC50 [1] | IC50 [2] | IC50 [3] | EC50 [4] | IC50 [5] | EC50 [6]

CCc1cc(N(C)C(=O)c2cccn2Cc2ccncc2)ccc1C [Compound B25, N-(3-ethyl-4-methylphenyl)-N-methyl-1-(pyridin-4-ylmethyl)-1H-pyrrole-2-carboxamide]
> 25 µM: IC50 [1] | IC50 [2] | IC50 [3] | EC50 [4] | IC50 [5] | EC50 [6]

CCc1nc(NC(=O)[C@@H]2CCCN2Cc2ccncc2)sc1C [Compound B26, (S)-N-(4-ethyl-5-methylthiazol-2-yl)-1-(pyridin-4-ylmethyl)pyrrolidine-2-carboxamide]
> 25 µM: IC50 [1] | IC50 [2] | IC50 [3] | EC50 [4] | IC50 [5] | EC50 [6]

CC(C)(C)c1csc(NC(=O)c2cccn2Cc2ccccc2)n1 [Compound B27, 1-benzyl-N-(4-(tert-butyl)thiazol-2-yl)-1H-pyrrole-2-carboxamide]
> 25 µM: IC50 [1] | IC50 [2] | IC50 [3] | EC50 [4] | IC50 [5] | EC50 [6]
